Experimental data from publication PMC7116001 (Science (New York, N.Y.), 2020).

Target: T1, S. acidocaldarius 20S proteasome (Saci_0613/Saci_0662ΔN/Saci_0909ΔN) (Sulfolobus acidocaldarius, UniProt Q4JAA8)
T1 sequence (Q4JAA8 11-203): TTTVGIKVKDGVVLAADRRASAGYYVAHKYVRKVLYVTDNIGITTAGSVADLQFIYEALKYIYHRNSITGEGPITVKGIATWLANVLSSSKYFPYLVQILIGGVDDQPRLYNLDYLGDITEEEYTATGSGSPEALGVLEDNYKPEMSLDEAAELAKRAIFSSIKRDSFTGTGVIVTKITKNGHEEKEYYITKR
T1 sequence (Q4JB24 1-242 partner): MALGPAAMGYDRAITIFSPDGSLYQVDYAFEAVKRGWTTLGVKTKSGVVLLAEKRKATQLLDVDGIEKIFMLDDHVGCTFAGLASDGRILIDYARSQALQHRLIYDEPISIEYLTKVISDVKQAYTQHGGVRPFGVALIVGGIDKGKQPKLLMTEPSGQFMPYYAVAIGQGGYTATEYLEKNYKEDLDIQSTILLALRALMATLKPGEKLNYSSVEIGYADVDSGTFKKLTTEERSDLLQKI
T1 sequence (Q4JAY3 7-195 partner): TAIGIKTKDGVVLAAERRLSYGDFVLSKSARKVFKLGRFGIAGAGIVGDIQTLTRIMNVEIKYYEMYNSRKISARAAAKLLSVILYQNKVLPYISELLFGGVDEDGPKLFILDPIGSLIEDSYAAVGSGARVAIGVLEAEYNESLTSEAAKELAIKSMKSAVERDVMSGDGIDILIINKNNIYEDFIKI
Test: degradation of Urm1
Type: biochemical
Conditions: substrate 3xUrm1-GFP; covalent (reversible boronate on Thr1, modelled)

Structure (SMILES): CC(C)C[C@H](NC(=O)[C@H](Cc1ccccc1)NC(=O)c1cnccn1)B(O)O [bortezomib]
- rate of substrate degradation: with different concentrations of inhibitor, the rate of substrate degradation was diminished
